Experimental data: publication PMC9954146, “Anti-Leukaemic Activity of Rilpivirine Is Mediated by Aurora A Kinase Inhibition” (Cancers, 2023)

Key:
Test in all cases: Kinase panel
Format in all cases: biochemical
Settings in all cases: read-out: % Residual Activity
ACK1(h) = molecular target: T1, ACK1(h) (Homo sapiens, UniProt Q07912)
T1 construct: purchased Eurofins (KinaseProfiler)
Outline: (§1)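 In this kinome-wide profiling of rilpivirine, IC50 values were obtained in radiometric format at the Km concentration of ATP for each kinase, then expressed as Ki using Cheng–Prusoff.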

ATR/ATRIP(h) = molecular target: T2, ATR/ATRIP(h) (Homo sapiens, UniProt Q13535)
T2 construct: purchased Eurofins (KinaseProfiler)
Outline: as §1

Aurora-C(h) = molecular target: T3, Aurora-C(h) (Homo sapiens, UniProt Q9UQB9)
T3 construct: purchased Eurofins (KinaseProfiler)
Outline: as §1

CDK1/cyclinB(h) = molecular target: T4, CDK1/cyclinB(h) (Homo sapiens, UniProt P06493)
T4 construct: purchased Eurofins (KinaseProfiler)
Outline: as §1

CDK12/cyclinK(h) = molecular target: T5, CDK12/cyclinK(h) (Homo sapiens, UniProt Q9NYV4)
T5 construct: purchased Eurofins (KinaseProfiler)
Outline: as §1

CK1γ3(h) = molecular target: T6, CK1γ3(h) (Homo sapiens, UniProt Q9Y6M4)
T6 construct: purchased Eurofins (KinaseProfiler)
Outline: as §1

CK2α1(h) = molecular target: T7, CK2α1(h) (Homo sapiens, UniProt P68400)
T7 construct: purchased Eurofins (KinaseProfiler)
Outline: as §1

CLIK1(h) = molecular target: T8, CLIK1(h) (Homo sapiens, UniProt Q8TDR2)
T8 construct: purchased Eurofins (KinaseProfiler)
Outline: as §1

CLK4(h) = molecular target: T9, CLK4(h) (Homo sapiens, UniProt Q9HAZ1)
T9 construct: purchased Eurofins (KinaseProfiler)
Outline: as §1

DYRK3(h) = molecular target: T10, DYRK3(h) (Homo sapiens, UniProt O43781)
T10 construct: purchased Eurofins (KinaseProfiler)
Outline: as §1

EphA1(h) = molecular target: T11, EphA1(h) (Homo sapiens, UniProt P21709)
T11 construct: purchased Eurofins (KinaseProfiler)
T11 sequence (P21709 26-976): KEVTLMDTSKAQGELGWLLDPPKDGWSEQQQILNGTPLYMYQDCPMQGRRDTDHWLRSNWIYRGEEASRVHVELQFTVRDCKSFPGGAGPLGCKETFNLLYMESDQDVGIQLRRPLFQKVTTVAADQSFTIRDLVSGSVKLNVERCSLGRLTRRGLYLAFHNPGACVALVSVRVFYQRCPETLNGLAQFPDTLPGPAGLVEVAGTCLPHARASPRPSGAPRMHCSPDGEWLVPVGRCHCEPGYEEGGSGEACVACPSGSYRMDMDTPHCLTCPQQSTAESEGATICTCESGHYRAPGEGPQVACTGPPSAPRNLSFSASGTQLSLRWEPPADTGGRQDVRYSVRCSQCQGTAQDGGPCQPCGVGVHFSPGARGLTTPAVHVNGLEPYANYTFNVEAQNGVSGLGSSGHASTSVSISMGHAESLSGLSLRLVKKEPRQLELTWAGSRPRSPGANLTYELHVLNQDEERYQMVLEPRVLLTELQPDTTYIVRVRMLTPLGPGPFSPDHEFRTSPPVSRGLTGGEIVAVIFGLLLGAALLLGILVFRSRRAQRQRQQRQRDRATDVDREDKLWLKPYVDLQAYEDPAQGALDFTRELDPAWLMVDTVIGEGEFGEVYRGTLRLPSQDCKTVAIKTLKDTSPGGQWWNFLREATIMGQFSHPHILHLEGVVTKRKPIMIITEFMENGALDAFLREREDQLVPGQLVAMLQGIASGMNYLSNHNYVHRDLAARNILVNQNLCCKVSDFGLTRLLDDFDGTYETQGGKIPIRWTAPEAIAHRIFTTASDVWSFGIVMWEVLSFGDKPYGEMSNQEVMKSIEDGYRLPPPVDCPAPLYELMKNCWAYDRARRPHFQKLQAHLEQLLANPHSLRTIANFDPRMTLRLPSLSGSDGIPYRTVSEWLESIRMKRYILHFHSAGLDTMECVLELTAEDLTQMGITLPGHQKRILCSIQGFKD
Outline: as §1

EphA3(h) = molecular target: T12, EphA3(h) (Homo sapiens, UniProt P29320)
T12 construct: purchased Eurofins (KinaseProfiler)
T12 sequence (P29320 21-983): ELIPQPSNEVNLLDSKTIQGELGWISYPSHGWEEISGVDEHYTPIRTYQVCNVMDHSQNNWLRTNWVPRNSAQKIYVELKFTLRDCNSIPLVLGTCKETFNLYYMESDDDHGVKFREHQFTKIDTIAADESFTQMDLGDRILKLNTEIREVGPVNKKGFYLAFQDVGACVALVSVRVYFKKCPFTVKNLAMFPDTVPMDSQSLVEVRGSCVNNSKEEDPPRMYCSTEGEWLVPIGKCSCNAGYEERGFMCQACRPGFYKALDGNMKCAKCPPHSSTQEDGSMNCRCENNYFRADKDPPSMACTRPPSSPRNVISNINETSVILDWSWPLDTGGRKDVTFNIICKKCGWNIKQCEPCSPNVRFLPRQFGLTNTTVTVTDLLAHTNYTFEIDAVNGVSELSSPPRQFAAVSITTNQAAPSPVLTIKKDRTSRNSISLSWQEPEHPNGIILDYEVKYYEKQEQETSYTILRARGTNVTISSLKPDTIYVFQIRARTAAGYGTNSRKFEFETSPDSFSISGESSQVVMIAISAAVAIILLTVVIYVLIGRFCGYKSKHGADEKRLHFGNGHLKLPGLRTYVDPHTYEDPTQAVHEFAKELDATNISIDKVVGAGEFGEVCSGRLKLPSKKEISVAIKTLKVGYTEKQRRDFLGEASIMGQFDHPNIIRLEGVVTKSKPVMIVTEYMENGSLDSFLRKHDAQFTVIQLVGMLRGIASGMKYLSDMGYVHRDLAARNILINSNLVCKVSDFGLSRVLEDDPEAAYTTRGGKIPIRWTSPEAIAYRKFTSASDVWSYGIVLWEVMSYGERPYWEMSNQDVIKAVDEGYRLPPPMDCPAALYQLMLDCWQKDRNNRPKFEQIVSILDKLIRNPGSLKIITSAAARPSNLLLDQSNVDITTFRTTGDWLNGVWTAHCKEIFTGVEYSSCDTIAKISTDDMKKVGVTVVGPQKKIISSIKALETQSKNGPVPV
Outline: as §1

FGFR2(h) = molecular target: T13, FGFR2(h) (Homo sapiens, UniProt P21802)
T13 construct: purchased Eurofins (KinaseProfiler)
Outline: as §1

FGFR4(h) = molecular target: T14, FGFR4(h) (Homo sapiens, UniProt P22455)
T14 construct: purchased Eurofins (KinaseProfiler)
Outline: as §1

GRK3(h) = molecular target: T15, GRK3(h) (Homo sapiens, UniProt P35626)
T15 construct: purchased Eurofins (KinaseProfiler)
Outline: as §1

GRK7(h) = molecular target: T16, GRK7(h) (Homo sapiens, UniProt Q8WTQ7)
T16 construct: purchased Eurofins (KinaseProfiler)
T16 sequence (Q8WTQ7 whole entry): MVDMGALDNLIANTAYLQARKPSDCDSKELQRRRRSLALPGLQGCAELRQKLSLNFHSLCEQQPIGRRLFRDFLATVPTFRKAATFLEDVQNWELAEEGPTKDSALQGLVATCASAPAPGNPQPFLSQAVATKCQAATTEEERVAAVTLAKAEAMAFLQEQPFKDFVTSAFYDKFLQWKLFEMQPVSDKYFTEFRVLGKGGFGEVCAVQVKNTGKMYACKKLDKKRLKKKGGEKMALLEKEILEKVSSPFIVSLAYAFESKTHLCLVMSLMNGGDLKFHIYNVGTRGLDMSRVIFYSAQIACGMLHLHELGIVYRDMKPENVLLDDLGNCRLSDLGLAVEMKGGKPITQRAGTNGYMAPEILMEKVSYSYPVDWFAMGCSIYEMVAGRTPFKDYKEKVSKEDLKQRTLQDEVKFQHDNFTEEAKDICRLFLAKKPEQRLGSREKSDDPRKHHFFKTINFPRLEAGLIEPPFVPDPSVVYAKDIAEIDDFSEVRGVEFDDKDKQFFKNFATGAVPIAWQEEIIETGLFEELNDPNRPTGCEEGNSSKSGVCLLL
Outline: as §1

Hck(h) activated = molecular target: T17, Hck(h) activated (Homo sapiens, UniProt P08631)
T17 construct: purchased Eurofins (KinaseProfiler)
Outline: as §1

IR(h) = molecular target: T18, IR(h) (Homo sapiens, UniProt P06213)
T18 construct: purchased Eurofins (KinaseProfiler)
Outline: as §1

Itk(h) = molecular target: T19, Itk(h) (Homo sapiens, UniProt Q08881)
T19 construct: purchased Eurofins (KinaseProfiler)
T19 sequence (Q08881 whole entry): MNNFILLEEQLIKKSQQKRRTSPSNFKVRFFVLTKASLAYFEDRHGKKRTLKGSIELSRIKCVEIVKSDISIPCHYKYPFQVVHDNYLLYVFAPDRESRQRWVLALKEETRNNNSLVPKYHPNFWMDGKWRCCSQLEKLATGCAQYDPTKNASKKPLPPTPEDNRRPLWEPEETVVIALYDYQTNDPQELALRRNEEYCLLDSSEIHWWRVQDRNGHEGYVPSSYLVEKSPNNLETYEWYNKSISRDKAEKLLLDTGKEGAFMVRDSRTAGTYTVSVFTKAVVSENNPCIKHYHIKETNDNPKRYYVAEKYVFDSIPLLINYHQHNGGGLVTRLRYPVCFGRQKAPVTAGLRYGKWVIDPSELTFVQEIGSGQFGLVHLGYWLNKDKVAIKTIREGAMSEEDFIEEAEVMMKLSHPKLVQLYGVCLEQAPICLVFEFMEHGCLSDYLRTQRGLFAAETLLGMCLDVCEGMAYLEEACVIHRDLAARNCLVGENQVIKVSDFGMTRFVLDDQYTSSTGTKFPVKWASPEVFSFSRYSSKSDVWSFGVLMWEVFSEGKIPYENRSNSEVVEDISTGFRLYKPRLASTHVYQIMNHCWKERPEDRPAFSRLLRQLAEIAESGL
Outline: as §1

MAP4K5(h) = molecular target: T20, MAP4K5(h) (Homo sapiens, UniProt Q9Y4K4)
T20 construct: purchased Eurofins (KinaseProfiler)
Outline: as §1

MKK3(h) = molecular target: T21, MKK3(h) (Homo sapiens, UniProt P46734)
T21 construct: purchased Eurofins (KinaseProfiler)
Outline: as §1

MLCK(h) = molecular target: T22, MLCK(h) (Homo sapiens, UniProt Q15746)
T22 construct: purchased Eurofins (KinaseProfiler)
Outline: as §1

MST3(h) = molecular target: T23, MST3(h) (Homo sapiens, UniProt Q9Y6E0)
T23 construct: purchased Eurofins (KinaseProfiler)
Outline: as §1

Met(Y1248C)(h) = molecular target: T24, Met(Y1248C)(h) (Homo sapiens, UniProt P08581, Y1230C)
T24 construct: purchased Eurofins (KinaseProfiler)
Outline: as §1

NEK2(h) = molecular target: T25, NEK2(h) (Homo sapiens, UniProt P51955)
T25 construct: purchased Eurofins (KinaseProfiler)
Outline: as §1

OSR1(h) = molecular target: T26, OSR1(h) (Homo sapiens, UniProt O95747)
T26 construct: purchased Eurofins (KinaseProfiler)
Outline: as §1

PAR-1Bα(h) = molecular target: T27, PAR-1Bα(h) (Homo sapiens, UniProt Q7KZI7)
T27 construct: purchased Eurofins (KinaseProfiler)
Outline: as §1

PDGFRα(D842V)(h) = molecular target: T28, PDGFRα(D842V)(h) (Homo sapiens, UniProt P16234, D842V)
T28 construct: purchased Eurofins (KinaseProfiler)
Outline: as §1

[1] = molecular target: PI3 Kinase (p110a(E542K)/p85a)(m) (Mus musculus, UniProt P42337, E542K)
Outline: as §1

PKAcβ(h) = molecular target: T29, PKAcβ(h) (Homo sapiens, UniProt P22694)
T29 construct: purchased Eurofins (KinaseProfiler)
Outline: as §1

PKBβ(h) = molecular target: T30, PKBβ(h) (Homo sapiens, UniProt P31751)
T30 construct: purchased Eurofins (KinaseProfiler)
Outline: as §1

PRK1(h) = molecular target: T31, PRK1(h) (Homo sapiens, UniProt Q16512)
T31 construct: purchased Eurofins (KinaseProfiler)
Outline: as §1

PRKG2(h) = molecular target: T32, PRKG2(h) (Homo sapiens, UniProt Q13237)
T32 construct: purchased Eurofins (KinaseProfiler)
Outline: as §1

ROCK-I(h) = molecular target: T33, ROCK-I(h) (Homo sapiens, UniProt Q13464)
T33 construct: purchased Eurofins (KinaseProfiler)
T33 sequence (Q13464 whole entry): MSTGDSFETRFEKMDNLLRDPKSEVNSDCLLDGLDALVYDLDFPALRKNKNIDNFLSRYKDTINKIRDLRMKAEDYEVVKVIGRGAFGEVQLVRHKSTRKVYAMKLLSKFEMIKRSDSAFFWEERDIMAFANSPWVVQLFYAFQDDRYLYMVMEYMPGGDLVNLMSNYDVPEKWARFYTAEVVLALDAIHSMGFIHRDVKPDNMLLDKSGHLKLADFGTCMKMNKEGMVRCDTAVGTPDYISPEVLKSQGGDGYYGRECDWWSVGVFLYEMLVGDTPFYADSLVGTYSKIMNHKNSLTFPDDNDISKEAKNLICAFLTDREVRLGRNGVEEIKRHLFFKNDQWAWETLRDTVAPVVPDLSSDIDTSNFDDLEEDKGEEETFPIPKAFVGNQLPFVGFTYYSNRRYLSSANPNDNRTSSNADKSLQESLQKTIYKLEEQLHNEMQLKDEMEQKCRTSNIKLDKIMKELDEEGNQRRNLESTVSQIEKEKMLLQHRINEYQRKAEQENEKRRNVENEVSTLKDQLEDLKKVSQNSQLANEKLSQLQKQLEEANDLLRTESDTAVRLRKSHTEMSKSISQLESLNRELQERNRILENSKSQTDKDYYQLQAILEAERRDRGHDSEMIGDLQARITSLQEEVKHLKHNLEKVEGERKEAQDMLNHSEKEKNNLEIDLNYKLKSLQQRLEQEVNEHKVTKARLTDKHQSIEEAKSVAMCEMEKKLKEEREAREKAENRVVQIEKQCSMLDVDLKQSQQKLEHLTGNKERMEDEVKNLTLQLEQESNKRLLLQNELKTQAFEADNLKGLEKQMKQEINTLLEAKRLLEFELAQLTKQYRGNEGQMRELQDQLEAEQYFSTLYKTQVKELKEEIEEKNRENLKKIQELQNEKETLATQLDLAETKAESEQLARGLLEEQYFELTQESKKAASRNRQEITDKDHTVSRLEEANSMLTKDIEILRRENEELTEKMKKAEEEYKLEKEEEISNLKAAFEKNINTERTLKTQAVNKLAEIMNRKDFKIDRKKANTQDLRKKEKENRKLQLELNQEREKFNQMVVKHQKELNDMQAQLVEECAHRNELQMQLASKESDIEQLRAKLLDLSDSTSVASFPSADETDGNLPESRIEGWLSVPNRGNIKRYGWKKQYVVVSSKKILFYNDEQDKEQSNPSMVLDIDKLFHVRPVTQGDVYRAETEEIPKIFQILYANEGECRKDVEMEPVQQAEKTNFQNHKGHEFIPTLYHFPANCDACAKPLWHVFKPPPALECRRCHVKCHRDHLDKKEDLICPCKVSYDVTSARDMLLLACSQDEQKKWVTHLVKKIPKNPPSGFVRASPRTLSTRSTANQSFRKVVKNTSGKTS
Outline: as §1

Ret(h) = molecular target: T34, Ret(h) (Homo sapiens, UniProt P07949)
T34 construct: purchased Eurofins (KinaseProfiler)
Outline: as §1

SIK3(h) = molecular target: T35, SIK3(h) (Homo sapiens, UniProt Q9Y2K2)
T35 construct: purchased Eurofins (KinaseProfiler)
Outline: as §1

STK33(h) = molecular target: T36, STK33(h) (Homo sapiens, UniProt Q9BYT3)
T36 construct: purchased Eurofins (KinaseProfiler)
T36 sequence (Q9BYT3 whole entry): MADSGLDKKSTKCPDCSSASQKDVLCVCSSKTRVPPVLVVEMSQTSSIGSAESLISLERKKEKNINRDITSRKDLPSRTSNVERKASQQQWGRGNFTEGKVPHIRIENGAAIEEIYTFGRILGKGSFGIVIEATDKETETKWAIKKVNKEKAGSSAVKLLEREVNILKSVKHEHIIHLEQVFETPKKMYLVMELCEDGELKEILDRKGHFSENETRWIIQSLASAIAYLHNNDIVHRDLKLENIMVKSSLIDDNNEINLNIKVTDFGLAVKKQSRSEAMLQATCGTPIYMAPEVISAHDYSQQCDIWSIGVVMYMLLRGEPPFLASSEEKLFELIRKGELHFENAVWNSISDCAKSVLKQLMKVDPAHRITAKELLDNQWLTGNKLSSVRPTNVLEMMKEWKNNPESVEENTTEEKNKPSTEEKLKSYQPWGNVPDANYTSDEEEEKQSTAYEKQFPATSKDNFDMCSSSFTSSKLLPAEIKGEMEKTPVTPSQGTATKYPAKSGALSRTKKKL
Outline: as §1

TLK2(h) = molecular target: T37, TLK2(h) (Homo sapiens, UniProt Q86UE8)
T37 construct: purchased Eurofins (KinaseProfiler)
Outline: as §1

TrkA(h) = molecular target: T38, TrkA(h) (Homo sapiens, UniProt P04629)
T38 construct: purchased Eurofins (KinaseProfiler)
Outline: as §1

`Cc1cc(/C=C/C#N)cc(C)c1Nc1ccnc(Nc2ccc(C#N)cc2)n1` [rilpivirine, (E)-4-((4-((4-(2-cyanoethenyl)-2,6-dimethylphenyl)amino)pyrimidin-2-yl)amino)benzonitrile] gave a remaining activity at 1 µM (ACK1(h)) of 97%, a remaining activity at 1 µM (ATR/ATRIP(h)) of 117% and a remaining activity at 1 µM (Aurora-C(h)) of 93%. For the same molecule, the remaining activity at 1 µM (CDK1/cyclinB(h)) was 105%, the remaining activity at 1 µM (CDK12/cyclinK(h)) was 85% and the remaining activity at 1 µM (CK1γ3(h)) was 107%. For the same molecule, the remaining activity at 1 µM (CK2α1(h)) was 101%, the remaining activity at 1 µM (CLIK1(h)) was 85% and the remaining activity at 1 µM (CLK4(h)) was 37%. The remaining activity at 1 µM (DYRK3(h)) was 84%, the remaining activity at 1 µM (EphA1(h)) was 56% and the remaining activity at 1 µM (EphA3(h)) was 86%. The remaining activity at 1 µM (FGFR2(h)) was 95%, the remaining activity at 1 µM (FGFR4(h)) was 121% and the remaining activity at 1 µM (GRK3(h)) was 92%. For the same molecule, the remaining activity at 1 µM (GRK7(h)) was 70%, the remaining activity at 1 µM (Hck(h) activated) was 63% and the remaining activity at 1 µM (IR(h)) was 111%. The remaining activity at 1 µM (Itk(h)) was 91%, the remaining activity at 1 µM (MAP4K5(h)) was 34% and the remaining activity at 1 µM (MKK3(h)) was 111%. For the same molecule, the remaining activity at 1 µM (MLCK(h)) was 95%, the remaining activity at 1 µM (MST3(h)) was 93% and the remaining activity at 1 µM (Met(Y1248C)(h)) was 100%. The remaining activity at 1 µM (NEK2(h)) was 97%, the remaining activity at 1 µM (OSR1(h)) was 102% and the remaining activity at 1 µM (PAR-1Bα(h)) was 104%. It also gave a remaining activity at 1 µM (PDGFRα(D842V)(h)) of 79%, a remaining activity at 1 µM [1] of 101% and a remaining activity at 1 µM (PKAcβ(h)) of 93%. For the same molecule, the remaining activity at 1 µM (PKBβ(h)) was 90%, the remaining activity at 1 µM (PRK1(h)) was 64% and the remaining activity at 1 µM (PRKG2(h)) was 92%. It also gave a remaining activity at 1 µM (ROCK-I(h)) of 95%, a remaining activity at 1 µM (Ret(h)) of 108% and a remaining activity at 1 µM (SIK3(h)) of 89%. For the same molecule, the remaining activity at 1 µM (STK33(h)) was 102%, the remaining activity at 1 µM (TLK2(h)) was 115% and the remaining activity at 1 µM (TrkA(h)) was 101%.
